System: KRAS PDC multicell spheroid viability
Assay: Anticancer human tumor 521955-158-R6-J3-PDC patient-derived pancreatic carcinoma cell line growth inhibition [KRAS2]
Conditions: for viability, T/C: stronger effect = lower value
Outline: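 Combination screen of spheroid viability in tumor-cell co-cultures with endothelial (HUVEC) and mesenchymal stem cell stroma. Each agent was tested in half-log dilutions, topping at clinical Cmax or at 10 microM without a known Cmax.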

[1] = curve of first compound, second compound 0.1 µM
[2] = curve of first compound, second compound 0.316 µM
[3] = curve of first compound, second compound 1 µM
[4] = curve of first compound, second compound 3.16 µM
[5] = second compound 0.1 µM, first compound 0.00316 µM
[6] = second compound 0.1 µM, first compound 0.01 µM
[7] = second compound 0.1 µM, first compound 0.0316 µM
[8] = second compound 0.1 µM, first compound 0.1 µM
[9] = second compound 0.316 µM, first compound 0.00316 µM
[10] = second compound 0.316 µM, first compound 0.01 µM
[11] = second compound 0.316 µM, first compound 0.0316 µM
[12] = second compound 0.316 µM, first compound 0.1 µM
[13] = second compound 1 µM, first compound 0.00316 µM
[14] = second compound 1 µM, first compound 0.01 µM
[15] = second compound 1 µM, first compound 0.0316 µM
[16] = second compound 1 µM, first compound 0.1 µM
[17] = second compound 3.16 µM, first compound 0.00316 µM
[18] = second compound 3.16 µM, first compound 0.01 µM
[19] = second compound 3.16 µM, first compound 0.0316 µM
[20] = second compound 3.16 µM, first compound 0.1 µM
[21] = curve of first compound, second compound 10 µM
[22] = second compound 0.1 µM, first compound 0.316 µM
[23] = second compound 0.1 µM, first compound 1 µM
[24] = second compound 0.316 µM, first compound 0.316 µM
[25] = second compound 0.316 µM, first compound 1 µM
[26] = second compound 1 µM, first compound 0.316 µM
[27] = second compound 1 µM, first compound 1 µM
[28] = second compound 3.16 µM, first compound 0.316 µM
[29] = second compound 3.16 µM, first compound 1 µM
[30] = second compound 10 µM, first compound 0.0316 µM
[31] = second compound 10 µM, first compound 0.1 µM
[32] = second compound 10 µM, first compound 0.316 µM
[33] = second compound 10 µM, first compound 1 µM
[34] = second compound 0.1 µM, first compound 3.16 µM
[35] = second compound 0.1 µM, first compound 10 µM
[36] = second compound 0.316 µM, first compound 3.16 µM
[37] = second compound 0.316 µM, first compound 10 µM
[38] = second compound 1 µM, first compound 3.16 µM
[39] = second compound 1 µM, first compound 10 µM
[40] = second compound 3.16 µM, first compound 3.16 µM
[41] = second compound 3.16 µM, first compound 10 µM
[42] = second compound 10 µM, first compound 3.16 µM
[43] = second compound 10 µM, first compound 10 µM
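Further: drug exposure lasted seven days.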
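Wherever viability, T/C is given: 100% = DMSO vehicle wells and lower means fewer viable cells.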

CN(C)C/C=C/C(=O)Nc1cc2c(Nc3ccc(F)c(Cl)c3)ncnc2cc1O[C@H]1CCOC1 + C=CC(=O)N1CCN(c2nc(OCC3CCCN3C)nc3c2CCN(c2cccc4cccc(C)c24)C3)CC1CC#N
IC50 (curve of first compound, second compound 0.0316 µM): > 100 nM | IC50 [1]: > 100 nM | IC50 [2]: > 100 nM | IC50 [3]: > 100 nM | IC50 [4]: < 0.316 nM | viability, T/C (second compound 0.0316 µM, first compound 0.000316 µM): 108% | viability, T/C (second compound 0.0316 µM, first compound 0.001 µM): 92.2% | viability, T/C (second compound 0.0316 µM, first compound 0.00316 µM): 81.8% | viability, T/C (second compound 0.0316 µM, first compound 0.01 µM): 72.4% | viability, T/C (second compound 0.0316 µM, first compound 0.0316 µM): 66% | viability, T/C (second compound 0.0316 µM, first compound 0.1 µM): 66.8% | viability, T/C (second compound 0.1 µM, first compound 0.000316 µM): 97.2% | viability, T/C (second compound 0.1 µM, first compound 0.001 µM): 93.8% | viability, T/C [5]: 89.6% | viability, T/C [6]: 64.7% | viability, T/C [7]: 72.4% | viability, T/C [8]: 61.8% | viability, T/C (second compound 0.316 µM, first compound 0.000316 µM): 99.9% | viability, T/C (second compound 0.316 µM, first compound 0.001 µM): 92.2% | viability, T/C [9]: 91% | viability, T/C [10]: 78.7% | viability, T/C [11]: 68% | viability, T/C [12]: 67.6% | viability, T/C (second compound 1 µM, first compound 0.000316 µM): 91.9% | viability, T/C (second compound 1 µM, first compound 0.001 µM): 93.4% | viability, T/C [13]: 81.3% | viability, T/C [14]: 63.4% | viability, T/C [15]: 64.1% | viability, T/C [16]: 64.5% | viability, T/C (second compound 3.16 µM, first compound 0.000316 µM): 48.5% | viability, T/C (second compound 3.16 µM, first compound 0.001 µM): 32.9% | viability, T/C [17]: 15.2% | viability, T/C [18]: 12.7% | viability, T/C [19]: 12.8% | viability, T/C [20]: 23.1%

CCN1CCN(Cc2ccc(Nc3ncc(F)c(-c4cc(F)c5nc(C)n(C(C)C)c5c4)n3)nc2)CC1 + CNCc1ccccc1-c1csc(C(C)Nc2nc(C)nc3cc(OC)c(OC)cc23)c1
IC50 [1]: > 1000 nM | IC50 [2]: > 1000 nM | IC50 [3]: 317 nM | IC50 [4]: < 3.16 nM | IC50 [21]: < 3.16 nM | viability, T/C [5]: 75.1% | viability, T/C [6]: 77.8% | viability, T/C [7]: 70.5% | viability, T/C [8]: 67.1% | viability, T/C [22]: 72.1% | viability, T/C [23]: 102% | viability, T/C [9]: 77.7% | viability, T/C [10]: 71.9% | viability, T/C [11]: 74.1% | viability, T/C [12]: 68% | viability, T/C [24]: 67.5% | viability, T/C [25]: 80.2% | viability, T/C [13]: 66.8% | viability, T/C [14]: 70.3% | viability, T/C [15]: 63.5% | viability, T/C [16]: 53.8% | viability, T/C [26]: 54.8% | viability, T/C [27]: 30.8% | viability, T/C [17]: 0.3% | viability, T/C [18]: 0.38% | viability, T/C [19]: 0.51% | viability, T/C [20]: 0.75% | viability, T/C [28]: 0.45% | viability, T/C [29]: 0.37% | viability, T/C (second compound 10 µM, first compound 0.00316 µM): 0.25% | viability, T/C (second compound 10 µM, first compound 0.01 µM): 0.26% | viability, T/C [30]: 0.3% | viability, T/C [31]: 0.21% | viability, T/C [32]: 0.22% | viability, T/C [33]: 0.46%

CC1OCC2(CCN(c3cnc(Sc4ccnc(N)c4Cl)c(N)n3)CC2)C1N (stereo not given)
viability, T/C (compound 0.0316 µM): 97.6% [middle of 4 runs] | viability, T/C (compound 0.316 µM): 86.6% [middle of 19 runs] | IC50 (compound alone, run of 08/19/2021): > 10000 nM | IC50 (compound alone, run of 08/26/2021): > 10000 nM | IC50 (compound alone, run of 09/02/2021): > 10000 nM | IC50 (curve of compound): > 10000 nM

COc1cc2nccc(Oc3ccc(NC(=O)C4(C(=O)Nc5ccc(F)cc5)CC4)cc3)c2cc1OC + CC1OCC2(CCN(c3cnc(Sc4ccnc(N)c4Cl)c(N)n3)CC2)C1N
IC50 [1]: > 10000 nM | IC50 [2]: > 10000 nM | IC50 [3]: > 10000 nM | IC50 [4]: > 10000 nM | IC50 [21]: > 10000 nM | viability, T/C [7]: 93.7% | viability, T/C [8]: 93.7% | viability, T/C [22]: 89.3% | viability, T/C [23]: 102% | viability, T/C [34]: 105% | viability, T/C [35]: 102% | viability, T/C [11]: 97.5% | viability, T/C [12]: 91% | viability, T/C [24]: 89.3% | viability, T/C [25]: 105% | viability, T/C [36]: 108% | viability, T/C [37]: 86.5% | viability, T/C [15]: 116% | viability, T/C [16]: 96.8% | viability, T/C [26]: 108% | viability, T/C [27]: 112% | viability, T/C [38]: 90.7% | viability, T/C [39]: 90% | viability, T/C [19]: 115% | viability, T/C [20]: 122% | viability, T/C [28]: 118% | viability, T/C [29]: 119% | viability, T/C [40]: 103% | viability, T/C [41]: 81.6% | viability, T/C [30]: 112% | viability, T/C [31]: 121% | viability, T/C [32]: 111% | viability, T/C [33]: 119% | viability, T/C [42]: 80.6% | viability, T/C [43]: 67.7%

COC(=O)c1ccc2c(C(=Nc3ccc(N(C)C(=O)CN4CCN(C)CC4)cc3)c3ccccc3)c(O)[nH]c2c1
viability, T/C (compound 0.0316 µM): 96.5% [middle of 5 runs] | viability, T/C (compound 0.1 µM): 109% [middle of 5 runs] | viability, T/C (compound 10 µM): 0.34% [middle of 5 runs] | IC50 (curve of compound): 3.54 µM [middle of 5 runs]

CCNC(=O)CC1N=C(c2ccc(Cl)cc2)c2cc(OC)ccc2-n2c(C)nnc21 (stereo not given) + C=CC(=O)N1CCN(c2nc(=O)n(-c3c(C)ccnc3C(C)C)c3nc(-c4c(O)cccc4F)c(F)cc23)C(C)C1
IC50 [1]: > 10000 nM | IC50 [2]: > 10000 nM | IC50 [3]: > 10000 nM | IC50 [4]: 930 nM | IC50 [21]: 266 nM | viability, T/C [7]: 88.2% | viability, T/C [8]: 93.7% | viability, T/C [22]: 79.9% | viability, T/C [23]: 78.5% | viability, T/C [34]: 81.6% | viability, T/C [35]: 78.6% | viability, T/C [11]: 103% | viability, T/C [12]: 105% | viability, T/C [24]: 79.3% | viability, T/C [25]: 72.2% | viability, T/C [36]: 83.3% | viability, T/C [37]: 70.6% | viability, T/C [15]: 112% | viability, T/C [16]: 108% | viability, T/C [26]: 83.2% | viability, T/C [27]: 81.1% | viability, T/C [38]: 66.5% | viability, T/C [39]: 68.7% | viability, T/C [19]: 89.3% | viability, T/C [20]: 83% | viability, T/C [28]: 65.6% | viability, T/C [29]: 49.8% | viability, T/C [40]: 40.7% | viability, T/C [41]: 45.3% | viability, T/C [30]: 72.1% | viability, T/C [31]: 68.4% | viability, T/C [32]: 46.2% | viability, T/C [33]: 35.5% | viability, T/C [42]: 33.7% | viability, T/C [43]: 29.2%
